Laboratory results taken from PubChem BioAssay AID2060332 (Molecular Pharmacology Branch, DTP, NCI, 2025).

System: LG0567-F671-PDC multi-cell spheroid viability
Assay: Anticancer human tumor LG0567-F671-PDC patient-derived lung adenocarcinoma cell line growth inhibition [IpAb]
Conditions: for IC50: curve of first compound; for viability, T/C: stronger effect = lower value
Excerpt: Combinatorial screen of targeted agents with ipatasertib and abemaciclib in multi-cell type tumor spheroids
A high-throughput screen of multi-cell type tumor spheroids was designed to identify active combinations of targeted small molecules and ipatasertib or abemaciclib. Complex spheroids include a stromal component modeled by human endothelial cells (HUVEC) and fibroblasts modeled by human mesenchymal stem cells (MSCs). The concentration ranges selected for each drug and investigational agent were based upon clinically achievable concentrations if the clinical Cmax of the agent was known.
Compounds. The drugs and investigational agents: ipatasertib (NSC767898), abemaciclib(NSC768073), selumetinib (NSC741078), trametinib (758246), adavosertib (NSC754352), everolimus (NSC733504), sapanisertib (NSC764658), vemurafenib (NSC761431), venetoclax (NSC766270), copanlisib (NSC809693), apelisib (NSC765974), palbociblib (NSC758247), vemurafenib (NSC761431), dabrafenib (NSC764134), ravoxertinib (NSC781343), BMS-387032 (NSC767048), sotorasib (NSC818433), talazoparib (NSC767125) and afursertib (NSC778305), were obtained from the National Cancer Institute (NCI) Developmental Therapeutics Program Chemical Repository. The FDA-approved anticancer drug set is available from the NCI Developmental Therapeutics Program. […] The stock solutions were prepared in dimethyl sulfoxide (DMSO, Sigma-Aldrich, St. Louis, MO, cat. D2650) at 800-fold the tested concentration and stored at -70 degrees C prior to their use. All drugs and investigational agents were tested over a range starting from a high concentration at or near the clinical Cmax and decreasing in half-log increments. If the clinical Cmax for an agent had not been determined, the highest concentration tested was 10 microM.
NCI60 Cell Culture. NCI60 cell lines were obtained from the NCI Developmental Therapeutics Program Tumor Repository. For each lot of cells, the Repository performed Applied Biosystems AmpFLSTR Identifiler testing with PCR amplification to confirm consistency with the published Identifier STR profile for each cell line. Cells were kept in continuous culture for no more than 20 passages. The optimal seeding densities for each of the cell lines at each time point assessed were determined prior to performing the concentration response studies. Briefly, the NCI60 human tumor lines were grown as monolayers in RPMI 1640 medium supplemented with 10% FBS and 2 mmol/L L-glutamine.
An additional 9 lines were from the NCI60 cell line panel including MDA-MB-231 breast carcinoma, MDA-MB-468 breast carcinoma, MCF7 breast carcinoma, Hs578T breast carcinoma, MALME-3M melanoma, SK-MEL-2 melanoma, SK-OV-3 ovarian carcinoma, DU-145 prostate carcinoma, PC-3 prostate carcinoma, all cell lines along with major genetic alterations are listed on Table 2. Pooled donor human umbilical vein endothelial cells (HUVEC, Lonza, cat. CC-2519) and human mesenchymal stem cells (hMSC, Lonza, cat. PT-2501) were purchased from Lonza (Walkersville, MD).
PDMR cell lines were grown in complete medium (DC medium): Dulbecco's modified Eagle's medium (DMEM)/F12 supplemented with 5% fetal bovine serum (FBS), 2 mM L-glutamine, 100 U/mL penicillin and 100 µg/ml streptomycin, 0.4 µg/ml hydrocortisone, 10 ng/ml epidermal growth factor (EGF) recombinant human protein, 24 µg/mL adenine, and 0.1 mg/mL primocin. During culture from frozen stock vials, PDMR cells were cultured in the same medium containing 10 µM Y-27632 (see Table 3). The PDCs were cultured in complete DMEM/F12 media without 10 microM Y-27632 dihydrochloride for at least two passages prior to the screen. The pooled donor HUVEC and hMSC were cultured in endothelial cell growth medium 2 (PromoCell, Heidelberg, Germany, cat. C-22011) and mesenchymal stem cell growth medium 2 (PromoCell, cat. C-28009), respectively. For all experiments, HUVEC and hMSC were used at passages </=5.
[…]

[1] = second compound 0.1 µM, first compound 0.0316 µM
[2] = second compound 0.1 µM, first compound 0.1 µM
[3] = second compound 0.316 µM, first compound 0.0316 µM
[4] = second compound 0.316 µM, first compound 0.1 µM
[5] = second compound 1 µM, first compound 0.0316 µM
[6] = second compound 1 µM, first compound 0.1 µM
[7] = second compound 3.16 µM, first compound 0.0316 µM
[8] = second compound 3.16 µM, first compound 0.1 µM
[9] = second compound 10 µM, first compound 0.0316 µM
[10] = second compound 10 µM, first compound 0.1 µM
[11] = second compound 0.1 µM, first compound 0.316 µM
[12] = second compound 0.1 µM, first compound 1 µM
[13] = second compound 0.1 µM, first compound 3.16 µM
[14] = second compound 0.1 µM, first compound 10 µM
[15] = second compound 0.316 µM, first compound 0.316 µM
[16] = second compound 0.316 µM, first compound 1 µM
[17] = second compound 0.316 µM, first compound 3.16 µM
[18] = second compound 0.316 µM, first compound 10 µM
[19] = second compound 1 µM, first compound 0.316 µM
[20] = second compound 1 µM, first compound 1 µM
[21] = second compound 1 µM, first compound 3.16 µM
[22] = second compound 1 µM, first compound 10 µM
[23] = second compound 3.16 µM, first compound 0.316 µM
[24] = second compound 3.16 µM, first compound 1 µM
[25] = second compound 3.16 µM, first compound 3.16 µM
[26] = second compound 3.16 µM, first compound 10 µM
[27] = second compound 10 µM, first compound 0.316 µM
[28] = second compound 10 µM, first compound 1 µM
[29] = second compound 10 µM, first compound 3.16 µM
[30] = second compound 10 µM, first compound 10 µM
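Note: viability read after 7 days of drug exposure.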
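Throughout, for viability, T/C: 100% = DMSO vehicle control luminescence.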

Row | SMILES | IC50 (second compound 0.1 µM) | IC50 (second compound 0.316 µM) | IC50 (second compound 1 µM) | IC50 (second compound 3.16 µM) | IC50 (second compound 10 µM) | viability, T/C [1] | viability, T/C [2] | viability, T/C [3] | viability, T/C [4] | viability, T/C [5] | viability, T/C [6] | viability, T/C [7] | viability, T/C [8] | viability, T/C [9] | viability, T/C [10] | viability, T/C [11] | viability, T/C [12] | viability, T/C [13] | viability, T/C [14] | viability, T/C [15] | further results
1 | CC(C)n1nc(-c2ccc3oc(N)nc3c2)c2c(N)ncnc21 + CC(C)NCC(C(=O)N1CCN(c2ncnc3c2C(C)CC3O)CC1)c1ccc(Cl)cc1 | 0.0804 µM | > 0.1 µM | > 0.1 µM | 0.0271 µM | 0.0117 µM | 59.1% | 46.4% | 50.4% | 59.5% | 57.9% | 46.4% | 45.5% | 39.9% | 37% | 43% |  |  |  |  |  | viability, T/C (second compound 0.1 µM, first compound 0.000316 µM): 89%; viability, T/C (second compound 0.1 µM, first compound 0.001 µM): 99.4%; viability, T/C (second compound 0.1 µM, first compound 0.00316 µM): 76.8%; viability, T/C (second compound 0.1 µM, first compound 0.01 µM): 65.8%; viability, T/C (second compound 0.316 µM, first compound 0.000316 µM): 76%; viability, T/C (second compound 0.316 µM, first compound 0.001 µM): 76%; viability, T/C (second compound 0.316 µM, first compound 0.00316 µM): 87%; viability, T/C (second compound 0.316 µM, first compound 0.01 µM): 66.5%; viability, T/C (second compound 1 µM, first compound 0.000316 µM): 70.3%; viability, T/C (second compound 1 µM, first compound 0.001 µM): 81.3%; viability, T/C (second compound 1 µM, first compound 0.00316 µM): 76.6%; viability, T/C (second compound 1 µM, first compound 0.01 µM): 57%; viability, T/C (second compound 3.16 µM, first compound 0.000316 µM): 97.2%; viability, T/C (second compound 3.16 µM, first compound 0.001 µM): 71.7%; viability, T/C (second compound 3.16 µM, first compound 0.00316 µM): 73%; viability, T/C (second compound 3.16 µM, first compound 0.01 µM): 62.7%; viability, T/C (second compound 10 µM, first compound 0.000316 µM): 72.9%; viability, T/C (second compound 10 µM, first compound 0.001 µM): 72.2%; viability, T/C (second compound 10 µM, first compound 0.00316 µM): 63.9%; viability, T/C (second compound 10 µM, first compound 0.01 µM): 53.8%
2 | CC1(C)CCC(CN2CCN(c3ccc(C(=O)NS(=O)(=O)c4ccc(NCC5CCOCC5)c([N+](=O)[O-])c4)c(Oc4cnc5[nH]ccc5c4)c3)CC2)=C(c2ccc(Cl)cc2)C1 + CC(C)NCC(C(=O)N1CCN(c2ncnc3c2C(C)CC3O)CC1)c1ccc(Cl)cc1 | 6.9 µM | 5.51 µM | 5.38 µM | 5.36 µM | 4.76 µM | 78.6% | 86.3% | 50% | 91.5% | 63.5% | 82.9% | 71.5% | 80.1% | 77.3% | 79.5% | 93.8% | 88.6% | 93.9% | 31.9% | 81.6% | viability, T/C [16]: 55.8%; viability, T/C [17]: 83.8%; viability, T/C [18]: 25.9%; viability, T/C [19]: 88.4%; viability, T/C [20]: 76.2%; viability, T/C [21]: 70.4%; viability, T/C [22]: 26.1%; viability, T/C [23]: 79.9%; viability, T/C [24]: 62.2%; viability, T/C [25]: 72.7%; viability, T/C [26]: 23.6%; viability, T/C [27]: 76.2%; viability, T/C [28]: 79.9%; viability, T/C [29]: 72.8%; viability, T/C [30]: 8.73%
3 | CCCS(=O)(=O)Nc1ccc(F)c(C(=O)c2c[nH]c3ncc(-c4ccc(Cl)cc4)cc23)c1F + CC(C)NCC(C(=O)N1CCN(c2ncnc3c2C(C)CC3O)CC1)c1ccc(Cl)cc1 | > 10 µM | > 10 µM | > 10 µM | > 10 µM | > 10 µM | 100% | 119% | 77.1% | 90.5% | 77.3% | 78.6% | 88.3% | 82.5% | 88.3% | 64.1% | 111% | 137% | 162% | 147% | 94.5% | viability, T/C [16]: 114%; viability, T/C [17]: 127%; viability, T/C [18]: 140%; viability, T/C [19]: 88.3%; viability, T/C [20]: 115%; viability, T/C [21]: 124%; viability, T/C [22]: 82%; viability, T/C [23]: 93.8%; viability, T/C [24]: 102%; viability, T/C [25]: 82.9%; viability, T/C [26]: 77.5%; viability, T/C [27]: 77%; viability, T/C [28]: 84.9%; viability, T/C [29]: 70.3%; viability, T/C [30]: 57.7%
